# Laboratory results published in patent publication US9663508B2, “Biaryl acyl-sulfonamide compounds as sodium channel inhibitors” (AMGEN INC., priority 2013, dated 2017).
# Molecular target: human Nav1.7 (Homo sapiens (Human), UniProt Q15858)
# Test: Nav 1.7 in vitro PatchXpress (PX) assay
# Type: cell-based
# Details: not given
# Sequence of human Nav1.7 (Q15858 whole entry): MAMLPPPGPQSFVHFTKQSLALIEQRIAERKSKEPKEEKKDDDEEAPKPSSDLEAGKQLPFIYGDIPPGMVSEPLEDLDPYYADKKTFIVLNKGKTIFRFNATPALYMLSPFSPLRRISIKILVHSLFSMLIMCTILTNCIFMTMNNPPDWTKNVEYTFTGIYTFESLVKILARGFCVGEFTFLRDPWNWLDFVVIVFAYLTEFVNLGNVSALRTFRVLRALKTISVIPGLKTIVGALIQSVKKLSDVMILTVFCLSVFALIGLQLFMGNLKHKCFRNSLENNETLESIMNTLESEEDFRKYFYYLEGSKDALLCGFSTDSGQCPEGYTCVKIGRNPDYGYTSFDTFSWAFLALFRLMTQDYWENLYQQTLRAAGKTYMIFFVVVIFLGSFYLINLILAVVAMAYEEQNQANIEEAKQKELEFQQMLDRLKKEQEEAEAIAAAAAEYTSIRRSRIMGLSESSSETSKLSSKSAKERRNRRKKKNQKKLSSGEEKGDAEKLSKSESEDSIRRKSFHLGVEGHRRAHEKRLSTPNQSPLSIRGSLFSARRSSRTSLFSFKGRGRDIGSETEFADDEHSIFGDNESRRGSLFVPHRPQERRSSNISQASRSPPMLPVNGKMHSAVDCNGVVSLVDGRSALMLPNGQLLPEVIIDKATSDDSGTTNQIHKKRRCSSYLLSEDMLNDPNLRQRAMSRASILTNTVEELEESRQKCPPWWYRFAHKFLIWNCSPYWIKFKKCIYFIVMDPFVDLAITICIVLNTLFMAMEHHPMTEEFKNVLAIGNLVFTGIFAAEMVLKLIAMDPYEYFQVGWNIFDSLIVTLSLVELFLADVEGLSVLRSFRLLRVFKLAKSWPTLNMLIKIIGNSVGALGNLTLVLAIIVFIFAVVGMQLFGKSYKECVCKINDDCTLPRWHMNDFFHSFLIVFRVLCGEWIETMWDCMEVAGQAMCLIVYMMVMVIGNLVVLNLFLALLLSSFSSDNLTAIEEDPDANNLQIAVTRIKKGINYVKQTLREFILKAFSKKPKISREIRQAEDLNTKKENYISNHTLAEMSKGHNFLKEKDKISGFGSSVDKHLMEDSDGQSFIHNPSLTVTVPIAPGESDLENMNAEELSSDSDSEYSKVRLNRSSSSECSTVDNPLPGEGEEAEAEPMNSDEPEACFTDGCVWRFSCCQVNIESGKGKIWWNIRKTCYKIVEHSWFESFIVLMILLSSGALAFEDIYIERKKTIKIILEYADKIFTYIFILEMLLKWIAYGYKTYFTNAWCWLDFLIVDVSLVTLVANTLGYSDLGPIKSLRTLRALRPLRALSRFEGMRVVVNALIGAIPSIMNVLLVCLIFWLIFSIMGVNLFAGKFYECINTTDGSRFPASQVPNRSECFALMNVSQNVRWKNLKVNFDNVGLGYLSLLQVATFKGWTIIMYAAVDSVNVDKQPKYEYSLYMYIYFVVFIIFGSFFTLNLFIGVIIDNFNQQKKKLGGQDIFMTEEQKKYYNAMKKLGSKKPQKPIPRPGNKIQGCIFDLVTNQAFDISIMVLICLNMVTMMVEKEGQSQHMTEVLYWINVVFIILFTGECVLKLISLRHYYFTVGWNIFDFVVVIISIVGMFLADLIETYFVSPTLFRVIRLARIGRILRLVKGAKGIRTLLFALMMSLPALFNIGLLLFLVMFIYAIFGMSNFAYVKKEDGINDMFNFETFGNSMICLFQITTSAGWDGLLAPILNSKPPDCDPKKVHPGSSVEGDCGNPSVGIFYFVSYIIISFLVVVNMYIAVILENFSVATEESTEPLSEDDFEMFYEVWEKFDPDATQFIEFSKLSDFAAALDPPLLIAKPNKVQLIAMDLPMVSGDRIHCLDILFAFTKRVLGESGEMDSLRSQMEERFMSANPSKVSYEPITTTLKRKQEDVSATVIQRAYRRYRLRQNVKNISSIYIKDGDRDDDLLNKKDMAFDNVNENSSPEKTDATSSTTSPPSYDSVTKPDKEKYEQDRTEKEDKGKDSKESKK
row,IC50,Molecule
1,86.3 nM,"Cc1cc(C(=O)NS(C)(=O)=O)c(F)cc1-c1cnc(O[C@H](C)c2ccccc2C(F)(F)F)c(Cl)c1 [Example 688, 4-(5-chloro-6-((1R)-1-(2-(trifluoromethyl)phenyl)ethoxy)-3-pyridinyl)-2-fluoro-5-methyl-N-(methylsulfonyl)benzamide, 4-(5-chloro-6-((1S)-1-(2-(trifluoromethyl)phenyl)ethoxy)-3-pyridinyl)-2-fluoro-5-methyl-N-(methylsulfonyl)benzamide]"
2,58.6 nM,"CC[C@H](Oc1ncc(-c2cc(F)c(C(=O)NS(C)(=O)=O)cc2C)cc1Cl)c1cccc(Cl)c1 [Example 676, 4-(5-chloro-6-(((1S)-1-(3-chlorophenyl)propyl)oxy)-3-pyridinyl)-2-fluoro-5-methyl-N-(methylsulfonyl)benzamide]"

# Further lines, the molecule ahead of its results:
row,Molecule,IC50
1,"COc1cc(C(=O)NS(C)(=O)=O)ccc1-c1cnc(Oc2cc(Cl)ccc2C)c(Cl)c1 [Example 379, 4-(5-chloro-6-(5-chloro-2-methylphenoxy)-3-pyridinyl)-3-methoxy-N-(methylsulfonyl)benzamide]",54.6 nM
2,"Cc1cccc(Oc2ncc(-c3cc(F)c(C(=O)NS(C)(=O)=O)cc3C)cc2Cl)c1 [Example 621, 4-(5-chloro-6-(3-methylphenoxy)-3-pyridinyl)-2-fluoro-5-methyl-N-(methylsulfonyl)benzamide]",108 nM
3,"Cc1cc(Oc2ncc(-c3ccc(C(=O)NS(C)(=O)=O)cc3OC(F)F)cc2Cl)ccc1Cl [Example 453, 4-(5-chloro-6-(4-chloro-3-methylphenoxy)-3-pyridinyl)-3-(difluoromethoxy)-N-(methylsulfonyl)benzamide]",60.3 nM
4,"Cc1ccc(Cl)c(Oc2ncc(-c3ccc(C(=O)NS(C)(=O)=O)cc3OC(F)F)cc2Cl)c1 [Example 462, 4-(5-chloro-6-(2-chloro-5-methylphenoxy)-3-pyridinyl)-3-(difluoromethoxy)-N-(methylsulfonyl)benzamide]",68.3 nM
5,"COc1cc(C(=O)NS(C)(=O)=O)ccc1-c1cnc(Oc2c(F)ccc(F)c2F)c(Cl)c1 [Example 362, 4-(5-chloro-6-(2,3,6-trifluorophenoxy)-3-pyridinyl)-3-methoxy-N-(methylsulfonyl)benzamide]",63.6 nM
6,"C[C@@H](Oc1ncc(-c2ccc(C(=O)NS(C)(=O)=O)cc2OC(F)F)cc1Cl)c1ccccc1 [Example 455, 4-(5-chloro-6-((1R)-1-phenylethoxy)-3-pyridinyl)-3-(difluoromethoxy)-N-(methylsulfonyl)benzamide]",58 nM
7,"Cc1cc(C(=O)NS(C)(=O)=O)c(F)cc1-c1cnc(Oc2ccc(OC(C)C)cc2)c(Cl)c1 [Example 663, 4-(5-chloro-6-(4-(1-methylethoxy)phenoxy)-3-pyridinyl)-2-fluoro-5-methyl-N-(methylsulfonyl)benzamide]",108 nM
8,"Cc1cc(C(=O)NS(C)(=O)=O)c(F)cc1-c1cnc(Oc2ccc(C(F)(F)F)c(F)c2)c(Cl)c1 [Example 671, 4-(5-chloro-6-(3-fluoro-4-(trifluoromethyl)phenoxy)-3-pyridinyl)-2-fluoro-5-methyl-N-(methylsulfonyl)benzamide]",123 nM
9,"CS(=O)(=O)NC(=O)c1ccc(-c2cnc(Oc3ccc(Cl)cc3)c(Cl)c2)c(OC(F)F)c1 [Example 466, 4-(5-chloro-6-(4-chlorophenoxy)-3-pyridinyl)-3-(difluoromethoxy)-N-(methylsulfonyl)benzamide]",68.8 nM
10,"Cc1cc(Cl)cc(Cl)c1Oc1ncc(-c2ccc(C(=O)NS(C)(=O)=O)cc2OC2COC2)cc1Cl [Example 584, 4-(5-chloro-6-(2,4-dichloro-6-methylphenoxy)-3-pyridinyl)-N-(methylsulfonyl)-3-(3-oxetanyloxy)benzamide]",59 nM
11,"COc1cc(C(=O)NS(C)(=O)=O)ccc1-c1cnc(N2CCC[C@H]2C(C)C)c(Cl)c1 [Example 355, 4-(5-chloro-6-((2S)-2-(1-methylethyl)-1-pyrrolidinyl)-3-pyridinyl)-3-methoxy-N-(methylsulfonyl)benzamide]",87.7 nM
12,"COc1cc(C(=O)NS(C)(=O)=O)ccc1-c1cnc(Oc2cccc(Cl)c2Cl)c(Cl)c1 [Example 583, 4-(5-Chloro-6-(2,3-Dichlorophenoxy)Pyridin-3-yl)-3-Methoxy-N-(Methylsulfonyl)Benzamide]",30.5 nM

# Same assay, conditions: in-vitro Nav 1.7 PX data
row,IC50,Molecule
1,73.4 nM,"CS(=O)(=O)NC(=O)c1ccc(-c2cnc(Oc3c(F)ccc(F)c3F)c(Cl)c2)c(Cl)c1 [Example 778, 3-chloro-4-(5-chloro-6-(2,3,6-trifluorophenoxy)-3-pyridinyl)-N-(methylsulfonyl)benzamide]"
2,151 nM,"COc1cc(C(=O)NS(C)(=O)=O)ccc1-c1cnc(Oc2cc(Cl)cc(Cl)c2)c(C=O)c1 [Example 822, 4-(6-(3,5-Dichlorophenoxy)-5-Formylpyridin-3-yl)-3-Methoxy-N-(Methylsulfonyl)Benzamide]"
3,73.2 nM,"CS(=O)(=O)NC(=O)c1cc(OC(F)F)c(-c2cnc(O[C@@H]3C[C@H]4CC[C@H]3C4)c(Cl)c2)cc1F [Example 783, 4-(6-((1S,2R,4S)-bicyclo[2.2.1]hept-2-yloxy)-5-chloro-3-pyridinyl)-5-(difluoromethoxy)-2-fluoro-N-(methylsulfonyl)benzamide]"
4,36.9 nM,"COc1cc(C(=O)NS(C)(=O)=O)c(F)cc1-c1cnc(Oc2ccc(Cl)cc2F)c(Cl)c1 [Example 753, 4-(5-chloro-6-(4-chloro-2-fluorophenoxy)-3-pyridinyl)-2-fluoro-5-methoxy-N-(methylsulfonyl)benzamide]"
5,98.6 nM,"COc1cc(C(=O)NS(C)(=O)=O)c(F)cc1-c1cnc(OCC2(C)CCCCC2)c(Cl)c1 [Example 714, 4-(5-chloro-6-((1-methylcyclohexyl)methoxy)-3-pyridinyl)-2-fluoro-5-methoxy-N-(methylsulfonyl)benzamide]"
6,76.4 nM,"COc1cc(C(=O)NS(C)(=O)=O)c(F)cc1-c1cnc(Oc2c(C)cccc2Cl)c(Cl)c1 [Example 748, 4-(5-chloro-6-(2-chloro-6-methylphenoxy)-3-pyridinyl)-2-fluoro-5-methoxy-N-(methylsulfonyl)benzamide]"
7,179 nM,"Cc1cc(C(=O)NS(C)(=O)=O)c(F)cc1-c1cnc(Oc2cc(Cl)cc(Cl)c2)c(C(F)F)c1 [Example 823, 4-(6-(3,5-Dichlorophenoxy)-5-(Difluoromethyl)Pyridin-3-yl)-2-Fluoro-5-Methyl-N-(Methyl Sulfonyl)Benzamide]"
8,98.8 nM,"COc1cc(C(=O)NS(C)(=O)=O)c(F)cc1-c1cnc(Oc2cc3ccccc3cc2Cl)c(Cl)c1 [Example 715, 4-(5-chloro-6-((3-chloro-2-naphthalenyl)oxy)-3-pyridinyl)-2-fluoro-5-methoxy-N-(methylsulfonyl)benzamide]"
9,106 nM,"COc1cc(C(=O)NS(C)(=O)=O)c(F)cc1-c1cnc(NCCC2CCCC2)c(Cl)c1 [Example 731, 4-(5-chloro-6-((2-cyclopentylethyl)amino)-3-pyridinyl)-2-fluoro-5-methoxy-N-(methylsulfonyl)benzamide]"
10,73.3 nM,"CS(=O)(=O)NC(=O)c1cc(OC(F)F)c(-c2cnc(Oc3c(F)ccc(F)c3F)c(Cl)c2)cc1F [Example 785, 4-(5-chloro-6-(2,3,6-trifluorophenoxy)-3-pyridinyl)-5-(difluoromethoxy)-2-fluoro-N-(methylsulfonyl)benzamide]"
11,39.4 nM,"CCS(=O)(=O)NC(=O)c1ccc(-c2cnc(Oc3c(F)ccc(F)c3F)c(Cl)c2)c(OC)c1 [Example 791, 4-(5-chloro-6-(2,3,6-trifluorophenoxy)-3-pyridinyl)-N-(ethylsulfonyl)-3-methoxybenzamide]"
12,104 nM,"CC[C@@H](Oc1ncc(-c2cc(F)c(C(=O)NS(C)(=O)=O)cc2OC)cc1Cl)C(F)(F)F [Example 732, 4-(5-chloro-6-(((1R)-1-(trifluoromethyl)propyl)oxy)-3-pyridinyl)-2-fluoro-5-methoxy-N-(methylsulfonyl)benzamide, 4-(5-chloro-6-(((1S)-1-(trifluoromethyl)propyl)oxy)-3-pyridinyl)-2-fluoro-5-methoxy-N-(methylsulfonyl)benzamide]"
13,145 nM,"COc1cc(C(=O)NS(C)(=O)=O)c(F)cc1-c1cnc(OCC2C(C)(C)C2(C)C)c(Cl)c1 [Example 718, 4-(5-chloro-6-((2,2,3,3-tetramethylcyclopropyl)methoxy)-3-pyridinyl)-2-fluoro-5-methoxy-N-(methylsulfonyl)benzamide]"
14,5840 nM,"Cc1cc(C(=O)NS(C)(=O)=O)c(F)cc1-c1cccc(OC(F)(F)C(F)F)c1 [Example 812, 5-fluoro-2-methyl-N-(methylsulfonyl)-3′-(1,1,2,2-tetrafluoroethoxy)-4-biphenylcarboxamide]"
15,78.9 nM,"Cc1cc(Cl)cc(Cl)c1Oc1ncc(-c2cc(F)c(C(=O)NS(C)(=O)=O)cc2F)cc1C#N [Example 787, 4-(5-cyano-6-(2,4-dichloro-6-methylphenoxy)pyridin-3-yl)-2,5-difluoro-N-(methylsulfonyl)benzamide]"
16,1570 nM,"Cc1cc(C(=O)NS(C)(=O)=O)c(F)cc1-c1ccc(OC(F)(F)C(F)F)cc1 [Example 811, 5-fluoro-2-methyl-N-(methylsulfonyl)-4′-(1,1,2,2-tetrafluoroethoxy)-4-biphenylcarboxamide]"

# Further lines, the molecule ahead of its results:
row,Molecule,IC50
1,"Cc1cc(C(=O)NS(C)(=O)=O)c(F)cc1-c1cnc(OC(C)(C)C)c(Cl)c1 [Example 816, 4-(6-tert-butoxy-5-chloro-3-pyridinyl)-2-fluoro-5-methyl-N-(methylsulfonyl)benzamide]",156 nM
2,"4-(3-Chloro-4′-Methoxy-2′-Methyl-[2,3′-Bipyridin]-5-yl)-2-Fluoro-5-Methyl-N-(Methylsulfonyl)Benzamide [Example 839]",12800 nM
3,"COc1cc(C(=O)NS(C)(=O)=O)ccc1-c1cnc(Oc2ccnc(OC)c2Cl)c(Cl)c1 [Example 832, 4-(5-chloro-6-((3-chloro-2-methoxy-4-pyridinyl)oxy)-3-pyridinyl)-3-methoxy-N-(methylsulfonyl)benzamide]",92.3 nM
4,"4-(3-Chloro-4′-Methoxy-2′-Methyl-[2,3′-Bipyridin]-5-yl)-2-Fluoro-5-Methyl-N-(Methyl Sulfonyl)Benzamide [Example 840]",8350 nM
